# Reference: ChEMBL document CHEMBL1201862, “PubChem BioAssay data set” (2004)
#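 Where inhibition never reached the appropriate level, the endpoint shown equals the highest concentration tested. Otherwise, values were interpolated linearly from a five-concentration, 48-hour dose response in 96-well plates. Here, GI50 denotes the concentration required for 50% inhibition of growth.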 Active and inactive are the calls of the source. Cut-off read from the data, not from the text of the source: active = GI50 up to about 1.1 µM and inactive = higher. Where a SMILES comes first, the peptide text is derived from it. The star is where a group is joined. Boc = CC(C)(C)OC(=O)*
# What was measured:
# Assay in all cases: growth of human tumour cells (NCI), 48 h
# SF-539 = tested on: SF-539
# UACC-62 = tested on: UACC-62
# IGROV-1 = tested on: IGROV-1
# HCC 2998 = tested on: HCC 2998
# NCI/ADR-RES = tested on: NCI/ADR-RES
# SF-295 = tested on: SF-295
# RPMI-8226 = tested on: RPMI-8226
# HCT-15 = tested on: HCT-15
# OVCAR-4 = tested on: OVCAR-4
# Hs-578T = tested on: Hs-578T
# K562 = tested on: K562
# UO-31 = tested on: UO-31
# HOP-92 = tested on: HOP-92
# NCI-H522 = tested on: NCI-H522
# SW-620 = tested on: SW-620
# CAKI-1 = tested on: CAKI-1
# NCI-H460 = tested on: NCI-H460
# SK-MEL-5 = tested on: SK-MEL-5
# KM12 = tested on: KM12
# A498 = tested on: A498
Compound,GI50 (SF-539),GI50 (UACC-62),GI50 (IGROV-1),GI50 (HCC 2998),GI50 (NCI/ADR-RES),GI50 (SF-295),GI50 (RPMI-8226),GI50 (HCT-15),GI50 (OVCAR-4),GI50 (Hs-578T),GI50 (K562),GI50 (UO-31),GI50 (HOP-92),GI50 (NCI-H522),GI50 (SW-620),GI50 (CAKI-1),GI50 (NCI-H460),GI50 (SK-MEL-5),GI50 (KM12),GI50 (A498)
COc1ccc(C(C#N)NC23CC4CC(CC(C4)C2)C3)cc1OC (stereo unspecified),> 100 µM (inactive),> 100 µM (inactive),> 100 µM (inactive),> 100 µM (inactive),> 100 µM (inactive),> 100 µM (inactive),> 100 µM (inactive),> 100 µM,> 100 µM (inactive),> 100 µM (inactive),> 100 µM (inactive),84.3 µM (inactive),96.8 µM (inactive),> 100 µM (inactive),> 100 µM (inactive),> 100 µM (inactive),> 100 µM (inactive),> 100 µM (inactive),> 100 µM (inactive),
CC(=O)Nc1ccc(C(=O)NN2C(=O)CSC2c2ccc(O)cc2)cc1 (stereo unspecified),> 100 µM (inactive),> 100 µM (inactive),> 100 µM (inactive),> 100 µM (inactive),> 100 µM (inactive),> 100 µM (inactive),> 100 µM (inactive),> 100 µM,> 100 µM (inactive),> 100 µM (inactive),> 100 µM (inactive),> 100 µM (inactive),> 100 µM (inactive),,> 100 µM (inactive),,> 100 µM (inactive),> 100 µM (inactive),> 100 µM (inactive),> 100 µM (inactive)
COC1CC(OC2C(C)OC(OC3C(C)OC(OC4C(C)OC(O[C@H]5CC[C@@]6(C)C(=CC[C@]7(O)[C@@H]6C[C@@H](OC(=O)/C=C(\C)C(C)C)[C@@]6(C)[C@]7(O)CC[C@@]6(O)C(C)=O)C5)CC4OC)CC3OC)CC2OC)OC(C)C1O (stereo partly specified),> 12.5 µM (inactive),> 12.5 µM (inactive),> 12.5 µM (inactive),> 12.5 µM (inactive),> 12.5 µM (inactive),> 12.5 µM (inactive),4.02 µM (inactive),> 12.5 µM,> 12.5 µM (inactive),> 12.5 µM (inactive),10.9 µM (inactive),4.85 µM (inactive),> 12.5 µM (inactive),> 12.5 µM (inactive),> 12.5 µM (inactive),> 12.5 µM (inactive),,11.2 µM (inactive),> 12.5 µM (inactive),
O=[N+]([O-])c1ccc(Cc2nc3cc4ccccc4cc3[nH]2)cc1C(F)(F)F,16.2 µM (inactive),,,16.6 µM (inactive),11.4 µM (inactive),11.9 µM (inactive),,12 µM,17.5 µM (inactive),11.6 µM (inactive),6.56 µM (inactive),15.8 µM (inactive),14.9 µM (inactive),20.4 µM (inactive),19.8 µM (inactive),11.6 µM (inactive),7.82 µM (inactive),10.7 µM (inactive),13.4 µM (inactive),17.7 µM (inactive)
CN(NC(=O)c1cccs1)C1=NCCCCN1,> 100 µM (inactive),> 100 µM (inactive),> 100 µM (inactive),> 100 µM (inactive),> 100 µM (inactive),> 100 µM (inactive),> 100 µM (inactive),> 100 µM,> 100 µM (inactive),> 100 µM (inactive),> 100 µM (inactive),> 100 µM (inactive),> 100 µM (inactive),> 100 µM (inactive),> 100 µM (inactive),,> 100 µM (inactive),> 100 µM (inactive),> 100 µM (inactive),> 100 µM (inactive)
CC(=O)c1c(=O)n(-c2ccc(C)cc2)c(O)c2c(N)n[nH]c12,> 100 µM (inactive),> 100 µM (inactive),> 100 µM (inactive),> 100 µM (inactive),> 100 µM (inactive),,> 100 µM (inactive),> 100 µM,> 100 µM (inactive),> 100 µM (inactive),> 100 µM (inactive),60 µM (inactive),,> 100 µM (inactive),> 100 µM (inactive),> 100 µM (inactive),> 100 µM (inactive),> 100 µM (inactive),> 100 µM (inactive),> 100 µM (inactive)
COc1cc(C(=O)Nc2c3ccccc3nc3ccccc23)cc(OC)c1OC,> 100 µM (inactive),> 34.7 µM (inactive),> 100 µM (inactive),> 100 µM (inactive),> 93.5 µM (inactive),35.6 µM (inactive),> 100 µM (inactive),> 100 µM,> 100 µM (inactive),> 100 µM (inactive),> 54.3 µM (inactive),40.3 µM (inactive),50.1 µM (inactive),42 µM (inactive),> 100 µM (inactive),> 22.1 µM (inactive),> 70.8 µM (inactive),> 100 µM (inactive),> 100 µM (inactive),
C/C(=N\Nc1nc2ccccc2s1)c1cccnn1,3.55 µM (inactive),2.7 µM (inactive),0.581 µM (active),13.2 µM (inactive),2.31 µM (inactive),2.31 µM (inactive),1.4 µM (inactive),0.333 µM,76 µM (inactive),12.1 µM (inactive),3.23 µM (inactive),1.24 µM (inactive),2.32 µM (inactive),1.72 µM (inactive),3.69 µM (inactive),1.04 µM (active),2.65 µM (inactive),1.31 µM (inactive),2.77 µM (inactive),
CO/N=C1\CC(NC(=O)C(F)(F)F)c2ccsc21 (stereo unspecified),> 100 µM (inactive),> 100 µM (inactive),> 100 µM (inactive),> 100 µM (inactive),> 100 µM (inactive),> 100 µM (inactive),,> 100 µM,> 100 µM (inactive),> 100 µM (inactive),> 100 µM (inactive),> 100 µM (inactive),> 100 µM (inactive),,> 100 µM (inactive),> 100 µM (inactive),> 100 µM (inactive),> 100 µM (inactive),,> 100 µM (inactive)
COC(=O)C(C)NC(=O)C(CCSC)NC(=O)C(Cc1ccccc1)NC(=O)OC(C)(C)C (stereo not drawn) (Boc-Phe-Met-Ala-OMe; configuration not given here),> 100 µM (inactive),> 100 µM (inactive),> 100 µM (inactive),> 100 µM (inactive),> 100 µM (inactive),> 100 µM (inactive),> 100 µM (inactive),> 100 µM,> 100 µM (inactive),> 100 µM (inactive),,> 100 µM (inactive),> 100 µM (inactive),> 100 µM (inactive),> 100 µM (inactive),> 100 µM (inactive),> 100 µM (inactive),> 100 µM (inactive),> 100 µM (inactive),
COc1cc(OC)c2nc(C)c(CCCl)c(Cl)c2c1,> 100 µM (inactive),> 100 µM (inactive),> 100 µM (inactive),> 100 µM (inactive),> 100 µM (inactive),> 100 µM (inactive),> 100 µM (inactive),> 100 µM,> 100 µM (inactive),> 100 µM (inactive),> 100 µM (inactive),> 100 µM (inactive),,> 100 µM (inactive),> 100 µM (inactive),> 100 µM (inactive),> 100 µM (inactive),> 10 µM (inactive),> 100 µM (inactive),> 100 µM (inactive)
